Test results published in patent US20210113687A1, “METHODS FOR TREATING INFLAMMATION” (NEW YORK UNIVERSITY, priority 2013, published 2021).

Assays:
[1] = system: Rac1; assay: Rac1 activation assay; format: cell-based, mouse; conditions: MCP-1 stimulation, within 5 minutes
Procedure: Rac1 activation assays Peritoneal macrophages were seeded in a 6-well plate overnight in regular growth media. The cells were stimulated with MCP-1 (10 ng/ml R&D systems) for 5 minutes with or without a pretreatment with mouse recombinant netrin-1 (250 ng/ml, R&D Systems) for 30 minutes. At the end of stimulation the cells were lysed and Rac1-GTP levels were measured using Rac1 Activation Assay (Cell Biolabs) according manufacturer's instructions.

[2] = system: mouse peritoneal macrophages; assay: Migration assay of peritoneal macrophages (pMø); format: cell-based; conditions: for inhibitory effect of netrin-1 on CCL19-induced migration: macrophages pre-incubated with agent
Procedure: Migration assays. Chemotaxis of macrophages (pMø, RAW264.7) and CaSMC was measured in 96-well Boyden chamber with a 5 μm (macrophages) or 8 μm pore size filter (CaSMC) (Neuro Probe) as previously described (Ly, et al., Proc Natl Acad Sci USA, 2005, 102: 14729-14734). Macrophage chemotaxis was also quantified using a Real-time Cell Invasion and Migration (RT-CIM)×Celligence assay system with monitoring every 5 min (Roche Applied Science). […] In some assays, cells were pretreated with netrin-1 or UNC5b blocking antibody (AF1006, R&D Systems) or Neogenin blocking antibody (Santa Cruz, sc-6537) or control goat IgG (Santa Cruz) for 1 hour prior to migration. Following cell migration for 3 or 16 hours (CaSMC and macrophages, respectively), four random high power fields from each well were counted to determine the number of cells that had migrated into the lower chamber. Migration was expressed as chemotactic index, which was calculated by dividing the number of migrating cells in the treated groups by the number of migrating cells in the lowest control well. Results of chemotaxis assays are representative of at least three independent experiments performed on triplicate samples.

[3] = system: human Netrin-1 promoter luciferase reporter construct; assay: Netrin-1 promoter-luciferase assay in HEK293T; format: cell-based; conditions: BAY 11-7082 20 μM pretreatment
Procedure: Netrin-1 Promoter-Luciferase MMV HEK293T were transfected with a human Netrin-1 promoter luciferase reporter construct (SwitchGear Genomics) using Lipofectamine™ 2000 (Invitrogen). After transfection, media was changed and cells were pretreated with the NFKB inhibitor BAY 11-7082 (20 μM) for 1 hour prior stimulation with 100 μg/ml oxLDL or PBS as a control for 24 hours. Luciferase activity was assessed using the Dual-Glo Luciferase Assay System (Promega) and normalized to a constitutively expressed Renilla reporter.

[4] = system: human NTNI promoter-luciferase reporter; assay: NTN1 promoter-luciferase assay (Example 4); format: cell-based; conditions: pretreating with NFkB inhibitor
Procedure: (§1) Promoter-Luciferase assays. HEK293T cells were transfected with human NTNI or Unc5H2 promoter-luciferase reporter constructs (SwitchGear Genomics) using Lipofectamine™ 2000 (11668-019, Invitrogen) After transfection, media was changed and cells were treated with palmitate or BSA for 24 hours, in the presence or absence of the NFkB inhibitor BAY 11-7082 (10 μmol/L). Luciferase activity was measured using the DUAL-Glo Luciferase Assay system (E1910, Promega).

[5] = system: human Unc5H2 promoter-luciferase reporter; assay: Unc5H2 promoter-luciferase assay (Example 4); format: cell-based; conditions: pretreating with NFkB inhibitor
Procedure: as §1

[6] = system: BMDM; assay: netrin-1 ELISA of BMDM supernatants; format: cell-based, mouse; conditions: blocking NFkB
Procedure: (§2) Cell culture. Primary bone marrow derived macrophage (BMDM) was prepared by flushing the bone marrow of the tibia and femur of 6-8 week old C57/B6 mice. The cells were grown in DMEM supplemented with 15% L929-conditioned media, 10% FBS and 1% penicillin/streptomycin for 7 days. BMDM were stimulated 250 pM palmitate conjugated with BSA or BSA as a control for 24 hours, or TNFα (10 ng/ml, 410-MT-010; R&D systems), IL-6 (40 nglml, 406-ML-005; R&D systems) and IL-4 (1 Onglml, 404-ML-010; R&D systems) for 24 h. In some assays, differentiated BMDM were treated with conditioned media from 3T3-L1 adipocytes differentiated as described (Lin, et al., J Biol Chem, 2005; 280:4617-4626) and treated with 250 pM palmitate conjugated with BSA or BSA for 24 hours. In certain experiments, anti-TNFα (0.4 μg/ml, AF-410-NA, R&D systems) or anti-IL-6 (0.025 μg/ml, MAB406; R&D systems) blocking antibody or IgG control (Normal Goat IgG: AB-108-C, Rat IgG1: MAB005; R&D systems) was added to conditioned media. […]
ELISA assay. Insulin (90080; crystal Chem Inc), adiponectin (ab108785; Abeam), FFA (SFA-1; Zen Bio), TNFa (88-7064-76; ebiosciences) and netrin-1 (E91827Mu; USCN life science Inc) levels were measured in the serum using mouse standards according to manufacturer's guidelines. Netrin-1 in human serum was measured using a human-specific netrin-1 ELISA from USCN Life Science Inc (700176; mybiosource).

[7] = system: BMDM; assay: BMDM migration towards MCP-1 (xCelligence); format: cell-based, mouse; conditions: treatment with Unc5b-FC
Procedure: (§3) Macrophage chemotaxis was measured using the Real-Time Cell Invasion and Migration xCelligence Assay System with monitoring every 3 min (Roche Applied Science). BMDM migration towards MCP-1 (100 ng/ml; R&D Systems) was measured in the presence or absence of oxLDL (50 μg/ml) and/or recombinant rat UNC5b-Fc chimera (1006-UN; R&D Systems) to block the effects of netrin-1. In a subset of experiments, cells were pre-treated with 0.1 mmol/L CoCl2 for 1 h prior to migration. J774 macrophage migration was carried out in the presence or absence of UNC5b-Fc chimera. Results of chemotaxis assays are representative of at least three independent experiments performed on triplicate samples.

[8] = system: J774Hif macrophages; assay: J774 macrophage migration (xCelligence); format: cell-based, mouse; conditions: treated with Unc5b-FC, no exogenous chemokine
Procedure: as §3

[9] = system: BMDMs; assay: Apoptotic assays of growth-factor deprived BMDM (TUNEL, active caspase-3); format: cell-based, mouse
Procedure: To induce apoptosis, BMDMs were grown in foe absence of L929 conditioned media (CM) for 3 days under normoxic or hypoxic conditions. In some assays, cells were treated with 100 μmol/L HIF-1α inhibitor or Unc5b-FC fragment or control IgG. After treatment, apoptotic cells were labeled with PE-active caspase-3 (557091, BD pharmingen) or by the TUNEL method using an in situ cell detection kit (Roche Diagnostics). Active Caspase-3, TUNEL and DAPI staining were analyzed with a Nikon Eclipse fluorescent microscope. Only TUNEL positive cells that colocalized with DAPI stained nuclei were considered apoptotic.

[10] = system: peritoneal macrophages; assay: Migration of palmitate-treated peritoneal macrophages to CCL19; format: cell-based, mouse; conditions: addition of Unc5b-FC
Procedure: as §2, with “media. Peritoneal macrophages were isolated as described (van Gils, et al., Nat Immunol, 2012; 13:136-143).” for “media.”
Migration. The migration of ATM or peritoneal macrophages to CCL19 (500 ng/ml; R&D Systems) was assessed by the xCelligence Real-time Cell Invasion and Migration system (ACEA biosciences Inc) that monitored chemotaxis every 5 minutes for over 6 h. […]

[11] = system: BMDM; assay: qRT-PCR of BMDM (palmitate, cytokines, adipocyte conditioned media); format: cell-based, mouse; conditions: direct addition of cytokine
Procedure: Real-time Quantitative RT-PCR Analysis RNA (0.5-1 μg) was reverse transcribed using iScript™ cDNA Synthesis Kit (Biorad) and RT-PCR analysis was conducted using kapa SYBR green Supermix (kappa syber) and a Mastercycler Realplex (Eppendorf) the primers used are listed. Fold change in mRNA expression was calculated using the comparative cycle method (ΔΔCt).
Cell culture. Primary bone marrow derived macrophage (BMDM) was prepared by flushing the bone marrow of the tibia and femur of 6-8 week old C57/B6 mice. The cells were grown in DMEM supplemented with 15% L929-conditioned media, 10% FBS and 1% penicillin/streptomycin for 7 days. BMDM were stimulated 250 pM palmitate conjugated with BSA or BSA as a control for 24 hours, or TNFα (10 ng/ml, 410-MT-010; R&D systems), IL-6 (40 nglml, 406-ML-005; R&D systems) and IL-4 (1 Onglml, 404-ML-010; R&D systems) for 24 h. In some assays, differentiated BMDM were treated with conditioned media from 3T3-L1 adipocytes differentiated as described (Lin, et al., J Biol Chem, 2005; 280:4617-4626) and treated with 250 pM palmitate conjugated with BSA or BSA for 24 hours. In certain experiments, anti-TNFα (0.4 μg/ml, AF-410-NA, R&D systems) or anti-IL-6 (0.025 μg/ml, MAB406; R&D systems) blocking antibody or IgG control (Normal Goat IgG: AB-108-C, Rat IgG1: MAB005; R&D systems) was added to conditioned media. Peritoneal macrophages were isolated as described (van Gils, et al., Nat Immunol, 2012; 13:136-143). Mice were injected intraperitoneally with 1 ml of 3% (wt/vol) thioglycolate to elicit sterile sterile peritonitis with macrophage numbers peaking on day 4. Cells were collected by lavage and used for migration assays.
Palmitate-BSA preparation. Sodium palmitate (P9767; Sigma Aldrich) was dissolved in sterile water in to make a 100-mM solution by alternating heating and vortexing until the palmitate was dissolved. Thu occurred once the solution reached 70 C. […]

[12] = system: Human NTN1 promoter-luciferase reporter; assay: NTN1 promoter luciferase assay (Example 2); format: cell-based
Procedure: (§4) Human NTN1 or UNC5B promoter-luciferase reporter plasmids (Switchgear Genomics) were transfected into HEK293T using Lipofectamine™ 2000 (11668-019, Invitrogen). After transfection, media was changed and cells were treated with oxLDL (50 μg/ml) or CoCl2 (0.1 mM), or DMOG (1 mmol/1) for 24 hours, in the presence or absence (PBS control) of inhibitors of NFκB (10 μmol/L Bay11-7082) or HIF1α (100 μmol/L HIF-1α inhibitor). Luciferase activity was measured using foe DUAL-Glo Luciferase Assay system (E1910, Promega) and normalized to a constitutively expressed renilla reporter or to protein concentration.

[13] = system: BMDMs; assay: qPCR of macrophages under hypoxic stress; format: cell-based, mouse
Procedure: Primary bone marrow derived macrophage (BMDM) were prepared by flushing the bone marrow of the tibia and femur of 6-8 week old C57/B6 mice as described (The cells were grown in DMEM supplemented with 15% L929-conditioned media, 10% FBS and 1% penicillin/streptomycin for 7 days and then treated with oxLDL or subjected to hypoxic conditions. Hypoxic incubations were carried out at 37° C. in a Billups-Rothenberg modular incubator chamber at 1% O2, 5% CO2 and 94% N2 for 24 hours. J774 control (J774con) and HIF-1α overexpressing (J774Hif) macrophages (Parathath et al., Circ. Res. 2011; 109:1141-1152) were grown in 5.5 mmol/L glucose containing DMEM supplemented with 15% FBS and 1% penicillin/streptomycin.
Total RNA was isolated using TRIZOL reagent and RNA ([…]) was reverse transcribed with an iScript cDNA Synthesis kit according to the manufacturer's instructions (Bio-Rad). RT-PCR analysis was performed using iQ SYBR green Supermix (Biorad) and a Mastercycler Realplex (Eppendorf) as we described (van Gils et al., Nat Immunol, 2012; 13:136-143). The change in mRNA expression was calculated by the comparative change-in-cycle-method (DDCT) relative to GAPDH mRNA levels. The following primer sets were used;

[14] = system: Human UNC5B promoter-luciferase reporter; assay: UNC5B promoter luciferase assay (Example 2); format: cell-based; conditions: treatment with HIF-1α inhibitor
Procedure: as §4

Compound: MCP-1: chemokine MCP-1 (R&D Systems)
- levels of activated Rac1 [1]: approximately 3 fold

Compound: Cn1c(=O)c2nc(-c3ccccc3)[nH]c2n(C)c1=O [inhibitor of the A2B adenosine receptor]
- inhibitory effect of netrin-1 on CCL19-induced migration [2]: no change

Compound: Cc1ccc(S(=O)(=O)/C=C/C#N)cc1 [BAY 11-7082]
- oxLDL induction of netrin-1 promoter activity [3]: inhibited

Compound: CC(C)(C)c1ccc(S(=O)(=O)/C=C/C#N)cc1 [BAY 11-7085]
- palmitate-induced Ntn1-promoter luciferase activity [4]: inhibited, in part
- palmitate-induced Unc5b-promoter luciferase activity [5]: inhibited, in part
- palmitate-induced secretion of netrin-1 by BMDM [6]: inhibited, in part

Compound: UNC5b-Fc: recombinant rat UNC5b-Fc chimera (cat #1006-UN, R&D Systems) to block the effects of netrin-1
- inhibition of migration to CCL19 by conditioned medium from oxLDL-treated macrophages ([2]; addition of recombinant UNC5b-Fc): reversed
- inhibitory effect of netrin-1 on CCL19-induced migration [2]: reversed the inhibitory effect of netrin-1
- CoCl2 impairment of macrophage migration to MCP-1 [7]: reversed this effect
- migration of J774-HIF cells [8]: comparable to control J774 macrophages
- TUNEL and active caspase-3 staining under hypoxic conditions ([9]; growth factor deprived macrophages, Unc5b-FC): increased TUNEL and active caspase-3 staining similar to normoxic controls
- migration of palmitate-treated macrophages to CCL19 [10]: restored

Compound: TNFα
- Ntn1 mRNA in BMDMs [11]: increased Ntn1 mRNA

Compound: COC(=O)CNC(=O)C(=O)OC [DMOG, dimethyloxalylglycine]
- Ntn1 promoter activity ([12]; HEK293 cells): potently induced

Compound: COC(=O)c1ccc(O)c(NC(=O)COc2ccc(C34CC5CC(CC(C5)C3)C4)cc2)c1 [HIF-1α inhibitor]
- oxLDL-induced Unc5b mRNA in BMDM ([13]; HIF-1α inhibitor): required HIF-1α activity
- Unc5b mRNA in response to low oxygen concentration, CoCl2 or DMOG ([13]; pre-treated with HIF-1α inhibitor): no upregulation of Unc5b
- increase in Ntn1 mRNA under hypoxia, CoCl2, DMOG or oxLDL ([13]; pretreatment with HIF-1α inhibitor): blocked
- oxLDL- and DMOG-induced increase in Ntn1 promoter activity ([12]; presence or absence of HIF-1α inhibitor): dependent on HIF-1α activity
- oxLDL-induced increase in Unc5b promoter activity [14]: abrogated
- protection from apoptosis (TUNEL) under hypoxic conditions ([9]; growth-factor deprived BMDM, HIF-1α inhibitor): reversed
